Type in all cases: biochemical
The target of experiment [1] is T1, BTK (Homo sapiens (Human), UniProt Q06187). Briefly: Protein kinase IC50 determination (method developed by Invitrogen Technology). Particulars: concentration of ATP: Km for ATP. On the procedure: (§1) In some experiments, inhibitory activities of the compounds described herein against select protein kinases were determined as IC50 values (e.g., IC50 values in Table 3) using methods known in the art (e.g., the method developed by Invitrogen Technology).

The target in a further experiment is HCK (Homo sapiens (Human), UniProt P08631). The experiment is described as above. The following applies: concentration of ATP: Km for ATP. The protocol: as §1
The target of experiment [2] is T1, BTK. Briefly: Radiometric [γ-32P]ATP protein kinase assay (Hastie et al.), % activity vs DMSO control. Particulars: read-out: Activity of the protein kinase when treated with compound I-1 (% control). The protocol: (§2) In another set of experiments, the activities of the compounds described herein against various protein kinases were determined according to the methods reported in Hastie et al., Nature Protocols, 2006, 1, 968-971.
(§3) This buffer consisted of 50 mM Tris-HCl, pH 7.5, 0.1 mM EGTA, 1 mg ml^−1 bovine serum albumin and 0.1% (vol/vol) 2-mercaptoethanol.
(§4) An assay buffer of 500 mM Tris-HCl, pH 7.5, 1 mM EGTA, and 100 mM magnesium acetate was used for assay of a wide variety of protein kinases. In some experiments, other cofactors were included (e.g., calcium ions and calmodulin were included for assay of calcium-calmodulin-dependent protein kinases).
(§5) The specific activity of the [γ-^32P] ATP solution was 1×10^5 to 1×10^6 c.p.m. per nmol depending on what was needed to produce an optimal signal/noise ratio. Stocks of nonradioactive (“cold”) ATP were dissolved in 10 mM HEPES, and the pH of the resulting stock solutions was adjusted to 7.4. To measure the concentration of ATP, a sample of such a stock solution was diluted to 20 μM, and the absorbance of the diluted sample was measured at 259 nm. The absorbance of a 20 μM stock solution of ATP at 259 nm was about 0.31. The 1-mM solution of cold ATP was “spiked” with [γ-^32P] ATP to produce a radioactivity of 1×10^5 to 1×10^6 c.p.m. per nmol.
(§6) 1) The number of assay samples needed was determined based on, e.g., the following considerations: (i) each condition was assayed in duplicate; (ii) two controls containing peptide or protein substrate and ATP but no protein kinase were included to assess contamination by any free ATP not incorporated into substrate, alongside two controls lacking a peptide or protein substrate but containing ATP and protein kinase to correct for any incorporation of phosphate into the kinase itself (e.g., autophosphorylation); and (iii) a maximum of 40 samples were assayed manually at one time by a single person. Microcentrifuge tubes were label distinctly and were placed on ice.
(§7) 2) Suspend a wire mesh basket in a beaker containing a magnetic stir bar and not less than 5 ml of 75 mM phosphoric acid per assay sample or a minimum volume of 100 ml. Place this on a magnetic stirrer behind a plexiglass shield.
(§8) 3) Label 2 cm×2 cm squares of phosphocellulose paper corresponding to the samples to be pipetted into each microcentrifuge tube. Label the phosphocellulose paper using pencil, which was not affected by the solvents used to wash the papers at the end of the assay.
(§9) 4) Dilute the protein kinase in enzyme dilution buffer and place on ice.
(§10) 5) Pipette 5 μl of 10× concentrated assay buffer, 5 μl peptide or protein substrate (the two “no-substrate” control tubes had 5 μl water added instead of peptide or protein substrate), and 30 μl distilled water into each tube. Keep the tubes on ice.
(§11) 6) Add 5 μl diluted protein kinase to each tube, except for the two “no-enzyme” control tubes, which had 5 μl enzyme dilution buffer added, and still keeping the tubes on ice. In some cases, premixed “cocktails” of assay components were prepared containing peptide or protein substrate, assay buffer, and distilled water to limit the number of additions to each assay tube.
(§12) 7) Insert each tube into the water bath at intervals of 15 s to allow the assay mixture to reach 30° C. Begin the protein kinase reactions by adding 5 μl of 1 mM [γ-^32P]ATP to each tube at intervals of 15 s. Close each tube, vortex for 1 s to mix the contents and immediately replace in a rack in the water bath. Incubate for 10 min at 30° C.
(§13) 8) At 10 min after the addition of ATP, remove each tube from the water bath at intervals of 15 s.
(§14) 9) “Spot” […] of each reaction mixture onto the center of a 2-cm square of P81 phosphocellulose paper using forceps to handle the paper squares. Immediately immerse the paper into the 75 mM phosphoric acid contained in the wire mesh basket suspended in the beaker that is being stirred continuously with a magnetic stirrer. This was be done within 1 to 2 s, as this step terminated the reaction. […]

The target of another experiment is YES1 (Homo sapiens (Human), UniProt P07947). Described as above. The following applies: read-out: Activity of the protein kinase when treated with compound I-1 (% control). The protocol:
as §2, §3, §4, §5, §6, §7, §8, §9, §10, §11, §12, §13, §14

Another experiment has as its target TIE2 (Homo sapiens (Human), UniProt Q02763). The experiment is described as above. Particulars: read-out: Activity of the protein kinase when treated with compound I-1 (% control). The protocol:
as §2, §3, §4, §5, §6, §7, §8, §9, §10, §11, §12, §13, §14

A further experiment has as its target Lck (Homo sapiens (Human), UniProt P06239). Described as above. The following applies: read-out: Activity of the protein kinase when treated with compound I-1 (% control). On the procedure:
as §2, §3, §4, §5, §6, §7, §8, §9, §10, §11, §12, §13, §14

In a further experiment the target is CSK (Homo sapiens (Human), UniProt P41240). The description is as above. The following applies: read-out: Activity of the protein kinase when treated with compound I-1 (% control). The protocol:
as §2, §3, §4, §5, §6, §7, §8, §9, §10, §11, §12, §13, §14

The target in the next experiment is HER4 (Homo sapiens (Human), UniProt Q15303). The experiment is described as above. The following applies: read-out: Activity of the protein kinase when treated with compound I-1 (% control). On the procedure:
as §2, §3, §4, §5, §6, §7, §8, §9, §10, §11, §12, §13, §14

For a further experiment, the target named is DDR2 (Homo sapiens (Human), UniProt Q16832). The experiment is described as above. The following applies: read-out: Activity of the protein kinase when treated with compound I-1 (% control). The protocol:
as §2, §3, §4, §5, §6, §7, §8, §9, §10, §11, §12, §13, §14

For the next experiment, the target named is ABL (Homo sapiens (Human), UniProt P00519). The experiment is described as above. Particulars: read-out: Activity of the protein kinase when treated with compound I-1 (% control). On the procedure: as §2, §3, §4, §5, §6, §7, §8, §9, §10, §11, §12, §13, §14
For a further experiment, the target named is BRK (Homo sapiens (Human), UniProt Q13882). The description is as above. Particulars: read-out: Activity of the protein kinase when treated with compound I-1 (% control). On the procedure:
as §2, §3, §4, §5, §6, §7, §8, §9, §10, §11, §12, §13, §14

A further experiment deals with VEG-FR. The experiment is described as above. On the procedure:
as §2, §3, §4, §5, §6, §7, §8, §9, §10, §11, §12, §13, §14

The target in a further experiment is EPH-A2 (Homo sapiens (Human), UniProt P29317). The description is as above. Particulars: read-out: Activity of the protein kinase when treated with compound I-1 (% control). The protocol: as §2, §3, §4, §5, §6, §7, §8, §9, §10, §11, §12, §13, §14
A further experiment concerns the target Src (Homo sapiens (Human), UniProt P12931). The experiment is described as above. Particulars: read-out: Activity of the protein kinase when treated with compound I-1 (% control). On the procedure: as §2, §3, §4, §5, §6, §7, §8, §9, §10, §11, §12, §13, §14
For a further experiment, the target named is p38a MAPK (Homo sapiens (Human), UniProt Q16539). The description is as above. Particulars: read-out: Activity of the protein kinase when treated with compound I-1 (% control). On the procedure:
as §2, §3, §4, §5, §6, §7, §8, §9, §10, §11, §12, §13, §14

The next experiment deals with FGF-R1 (Homo sapiens (Human), UniProt P11362). The description is as above. The following applies: read-out: Activity of the protein kinase when treated with compound I-1 (% control). On the procedure:
as §2, §3, §4, §5, §6, §7, §8, §9, §10, §11, §12, §13, §14

In a further experiment the target is EPH-B1 (Homo sapiens (Human), UniProt P54762). The description is as above. Particulars: read-out: Activity of the protein kinase when treated with compound I-1 (% control). The protocol:
as §2, §3, §4, §5, §6, §7, §8, §9, §10, §11, §12, §13, §14

Where [3] appears, read: 0.1 μM of compound I-1, DMSO control = 100%.
The mark [4] stands for this setting: 1 μM of compound I-1, DMSO control = 100%.

Results on four compounds are retold here after patent US10287268B2, “Imidazolyl kinase inhibitors and uses thereof” (Dana-Farber Cancer Institute, Inc., priority 2014, dated 2019).

By IC50 is commonly meant the point on the concentration scale where inhibition reaches its midpoint. The low end stands for greater potency in that assay, the high end for weaker potency in that assay.

T1 sequence (Q06187 whole entry): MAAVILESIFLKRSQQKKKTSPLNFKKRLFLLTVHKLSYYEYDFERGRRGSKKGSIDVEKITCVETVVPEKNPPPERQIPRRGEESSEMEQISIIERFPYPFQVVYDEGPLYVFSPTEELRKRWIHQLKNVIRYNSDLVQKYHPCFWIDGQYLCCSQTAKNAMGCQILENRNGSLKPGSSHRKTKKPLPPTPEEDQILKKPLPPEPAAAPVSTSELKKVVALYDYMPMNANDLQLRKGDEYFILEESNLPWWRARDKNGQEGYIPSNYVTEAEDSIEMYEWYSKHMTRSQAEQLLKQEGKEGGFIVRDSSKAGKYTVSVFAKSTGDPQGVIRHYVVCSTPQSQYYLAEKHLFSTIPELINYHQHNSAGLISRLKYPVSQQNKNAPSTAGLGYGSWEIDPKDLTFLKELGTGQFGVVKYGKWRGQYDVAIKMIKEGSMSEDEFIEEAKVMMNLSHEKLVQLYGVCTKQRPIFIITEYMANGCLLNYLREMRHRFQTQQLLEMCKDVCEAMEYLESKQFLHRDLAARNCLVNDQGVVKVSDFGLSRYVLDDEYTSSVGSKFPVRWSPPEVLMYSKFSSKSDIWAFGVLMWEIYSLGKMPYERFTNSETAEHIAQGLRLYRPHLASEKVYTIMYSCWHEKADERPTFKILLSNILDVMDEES
Chain of HCK (P08631 whole entry): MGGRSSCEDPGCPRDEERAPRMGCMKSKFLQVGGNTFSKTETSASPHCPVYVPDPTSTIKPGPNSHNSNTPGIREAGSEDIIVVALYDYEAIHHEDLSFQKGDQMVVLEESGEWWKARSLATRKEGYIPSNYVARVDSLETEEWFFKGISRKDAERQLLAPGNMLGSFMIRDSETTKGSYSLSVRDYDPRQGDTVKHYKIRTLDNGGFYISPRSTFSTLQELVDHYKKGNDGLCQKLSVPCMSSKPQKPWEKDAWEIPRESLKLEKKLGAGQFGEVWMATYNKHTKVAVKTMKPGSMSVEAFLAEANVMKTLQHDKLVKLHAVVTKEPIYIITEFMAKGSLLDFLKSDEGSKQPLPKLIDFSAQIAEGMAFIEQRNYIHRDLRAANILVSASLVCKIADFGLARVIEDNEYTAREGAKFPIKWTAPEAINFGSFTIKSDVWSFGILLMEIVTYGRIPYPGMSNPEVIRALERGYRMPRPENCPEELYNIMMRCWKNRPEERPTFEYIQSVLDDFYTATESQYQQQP
Chain of YES1 (P07947 whole entry): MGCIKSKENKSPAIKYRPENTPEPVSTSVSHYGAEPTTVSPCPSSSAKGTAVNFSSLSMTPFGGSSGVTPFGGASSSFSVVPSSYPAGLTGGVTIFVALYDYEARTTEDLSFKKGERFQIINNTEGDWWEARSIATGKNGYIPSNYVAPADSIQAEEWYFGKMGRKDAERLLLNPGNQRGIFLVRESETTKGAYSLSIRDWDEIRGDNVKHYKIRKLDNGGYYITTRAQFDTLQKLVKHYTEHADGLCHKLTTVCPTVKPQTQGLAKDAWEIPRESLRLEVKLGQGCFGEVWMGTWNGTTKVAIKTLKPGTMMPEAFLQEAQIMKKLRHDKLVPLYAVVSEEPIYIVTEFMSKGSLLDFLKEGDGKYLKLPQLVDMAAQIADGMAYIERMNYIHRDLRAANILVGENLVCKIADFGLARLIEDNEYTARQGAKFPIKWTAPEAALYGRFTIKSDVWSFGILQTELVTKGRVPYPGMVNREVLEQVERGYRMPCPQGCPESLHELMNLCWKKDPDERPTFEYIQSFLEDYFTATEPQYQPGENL
Chain of EPH-B1 (P54762 18-984): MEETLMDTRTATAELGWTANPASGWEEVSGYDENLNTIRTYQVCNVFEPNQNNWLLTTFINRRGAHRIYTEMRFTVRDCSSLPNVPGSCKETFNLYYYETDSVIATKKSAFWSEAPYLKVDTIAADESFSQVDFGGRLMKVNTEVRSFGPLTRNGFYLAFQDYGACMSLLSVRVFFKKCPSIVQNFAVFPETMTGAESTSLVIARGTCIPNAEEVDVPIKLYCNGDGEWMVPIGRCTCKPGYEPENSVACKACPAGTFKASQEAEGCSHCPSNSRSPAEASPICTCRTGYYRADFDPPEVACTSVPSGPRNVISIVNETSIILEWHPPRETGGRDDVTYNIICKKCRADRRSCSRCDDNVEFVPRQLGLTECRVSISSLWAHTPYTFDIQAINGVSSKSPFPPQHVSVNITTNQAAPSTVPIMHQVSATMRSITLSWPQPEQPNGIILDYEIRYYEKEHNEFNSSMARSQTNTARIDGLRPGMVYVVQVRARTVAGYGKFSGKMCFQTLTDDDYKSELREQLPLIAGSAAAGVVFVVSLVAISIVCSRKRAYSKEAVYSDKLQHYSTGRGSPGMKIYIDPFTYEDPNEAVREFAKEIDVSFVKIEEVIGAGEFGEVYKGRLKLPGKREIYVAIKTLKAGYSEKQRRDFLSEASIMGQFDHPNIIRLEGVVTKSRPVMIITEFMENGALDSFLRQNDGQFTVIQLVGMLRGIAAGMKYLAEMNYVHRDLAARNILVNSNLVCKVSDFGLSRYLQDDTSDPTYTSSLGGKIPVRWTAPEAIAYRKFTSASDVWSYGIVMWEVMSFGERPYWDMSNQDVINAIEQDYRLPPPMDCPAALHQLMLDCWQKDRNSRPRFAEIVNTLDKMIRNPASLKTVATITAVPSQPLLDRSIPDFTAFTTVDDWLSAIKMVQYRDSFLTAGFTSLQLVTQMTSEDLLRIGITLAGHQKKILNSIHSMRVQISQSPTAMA
Chain of Src (P12931 whole entry): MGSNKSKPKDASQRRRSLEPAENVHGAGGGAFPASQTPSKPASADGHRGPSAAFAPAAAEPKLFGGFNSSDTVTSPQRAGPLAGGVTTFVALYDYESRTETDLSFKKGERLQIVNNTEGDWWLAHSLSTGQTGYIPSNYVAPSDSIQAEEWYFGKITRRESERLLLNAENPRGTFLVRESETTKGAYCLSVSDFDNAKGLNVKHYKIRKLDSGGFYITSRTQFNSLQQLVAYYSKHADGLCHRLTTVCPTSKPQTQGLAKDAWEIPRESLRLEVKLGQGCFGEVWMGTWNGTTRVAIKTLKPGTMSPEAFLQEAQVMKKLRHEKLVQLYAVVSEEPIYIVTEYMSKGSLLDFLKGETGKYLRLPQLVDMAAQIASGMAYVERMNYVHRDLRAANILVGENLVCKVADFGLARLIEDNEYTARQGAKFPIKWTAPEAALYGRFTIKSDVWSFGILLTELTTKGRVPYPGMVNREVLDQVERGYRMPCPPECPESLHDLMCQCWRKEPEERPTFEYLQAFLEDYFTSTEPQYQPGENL
Chain of TIE2 (Q02763 23-1124): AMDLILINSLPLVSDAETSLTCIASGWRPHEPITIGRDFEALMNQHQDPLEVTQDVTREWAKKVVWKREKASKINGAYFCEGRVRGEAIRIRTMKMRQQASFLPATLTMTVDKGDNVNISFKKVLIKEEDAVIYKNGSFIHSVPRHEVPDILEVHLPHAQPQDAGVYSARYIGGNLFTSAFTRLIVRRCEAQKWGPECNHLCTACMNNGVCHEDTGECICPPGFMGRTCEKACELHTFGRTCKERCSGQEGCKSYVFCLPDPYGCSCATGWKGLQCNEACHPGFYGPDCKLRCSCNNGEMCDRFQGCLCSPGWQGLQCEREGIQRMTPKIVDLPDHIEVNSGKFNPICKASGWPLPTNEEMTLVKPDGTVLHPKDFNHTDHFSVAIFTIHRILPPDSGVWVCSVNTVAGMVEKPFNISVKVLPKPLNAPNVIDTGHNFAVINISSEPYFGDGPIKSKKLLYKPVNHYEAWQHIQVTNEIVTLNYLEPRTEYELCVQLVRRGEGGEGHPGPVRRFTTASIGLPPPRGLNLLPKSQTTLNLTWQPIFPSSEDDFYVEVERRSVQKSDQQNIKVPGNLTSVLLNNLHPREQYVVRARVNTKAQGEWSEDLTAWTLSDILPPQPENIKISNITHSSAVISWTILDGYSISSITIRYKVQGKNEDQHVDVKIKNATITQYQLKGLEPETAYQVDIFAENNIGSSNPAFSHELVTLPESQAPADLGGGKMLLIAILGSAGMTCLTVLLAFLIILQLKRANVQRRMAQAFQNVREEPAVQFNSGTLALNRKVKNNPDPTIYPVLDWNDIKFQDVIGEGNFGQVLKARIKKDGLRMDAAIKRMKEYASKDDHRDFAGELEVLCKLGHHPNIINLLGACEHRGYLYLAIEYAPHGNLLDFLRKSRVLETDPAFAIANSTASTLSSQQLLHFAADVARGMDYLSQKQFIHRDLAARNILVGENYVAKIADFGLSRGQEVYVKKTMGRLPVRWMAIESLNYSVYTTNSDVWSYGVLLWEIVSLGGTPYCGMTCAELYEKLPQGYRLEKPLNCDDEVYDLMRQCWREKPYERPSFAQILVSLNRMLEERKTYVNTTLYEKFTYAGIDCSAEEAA
Chain of p38a MAPK (Q16539 whole entry, looked up): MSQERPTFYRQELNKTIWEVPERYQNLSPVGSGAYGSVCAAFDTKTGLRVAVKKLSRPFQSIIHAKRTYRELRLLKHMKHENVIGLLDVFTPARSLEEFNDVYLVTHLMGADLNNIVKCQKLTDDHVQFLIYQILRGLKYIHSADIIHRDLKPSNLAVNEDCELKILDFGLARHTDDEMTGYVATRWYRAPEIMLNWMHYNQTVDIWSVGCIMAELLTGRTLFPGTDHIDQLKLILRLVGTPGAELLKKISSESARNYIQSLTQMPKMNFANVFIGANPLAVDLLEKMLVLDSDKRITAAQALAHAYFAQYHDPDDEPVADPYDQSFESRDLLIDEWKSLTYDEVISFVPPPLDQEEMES

In the case of `CCN1CCN(c2ccc(Nc3cc(-n4ccnc4Nc4c(C)cccc4C)ncn3)cc2)CC1` [Compound I-1, 6-(2-((2,6-Dimethylphenyl)amino)-1H-imidazol-1-yl)-N-(4-(4-ethylpiperazin-1-yl)phenyl)pyrimidin-4-amine], the figures for the IC50 at BTK [1] and at HCK were 338 nM and 111 nM, respectively. For the same compound, the remaining activity at 0.1 µM stood at 85% on BTK [2] (setting [3]); 41% on YES1 (setting [3]); 82% at TIE2 (setting [3]); 24% at Lck (setting [3]); 94% on CSK (setting [3]); 97% at HER4 (setting [3]). The remaining activity at 0.1 µM at DDR2 (setting [3]) was 46%; at ABL (setting [3]), 84%; on BRK (setting [3]) it was 74%; on EPH-A2 (setting [3]) it was 99%; at Src (setting [3]), 43%; on p38a MAPK (setting [3]), 87%. The results for the remaining activity at 0.1 µM on FGF-R1 (setting [3]) and at EPH-B1 (setting [3]) were 67% and 86%, respectively. The remaining activity at 1 µM is 30% at BTK [2] (setting [4]); 8% at YES1 (setting [4]); 85% at TIE2 (setting [4]); 13% on Lck (setting [4]); 67% at CSK (setting [4]); 76% on HER4 (setting [4]). Besides, the remaining activity at 1 µM was 12% at DDR2 (setting [4]); 48% at ABL (setting [4]); 16% at BRK (setting [4]); 59% at EPH-A2 (setting [4]); 13% at Src (setting [4]); 28% at p38a MAPK (setting [4]). Besides, the remaining activity at 1 µM on FGF-R1 (setting [4]) amounted to 30%; at EPH-B1 (setting [4]), 16%. In addition, the “Activity of the protein kinase when treated with compound I-1 (% control)” value with VEG-FR (setting [3]) is 81 % control; in the experiment with VEG-FR (setting [4]), 31 % control.
Regarding `COCCOc1ccc(Nc2cc(-n3ccnc3Nc3c(C)cccc3Cl)ncn2)cc1` [Compound I-2], the values for the IC50 against BTK [1] and against HCK were 1860 nM and 307 nM, respectively.
Turning to `COCCOc1ccc(Nc2cc(-n3ccnc3Nc3c(C)cccc3C)ncn2)cc1` [Compound I-3], the IC50 on BTK [1] is 9980 nM; on HCK, 2420 nM.
As to `Cc1cccc(Cl)c1Nc1nccn1-c1cc(Nc2cnn(C)c2)ncn1` [Compound I-4], the results for the IC50 on BTK [1] and on HCK were more than 10000 nM and 3000 nM, respectively.
